SMILES strings stand for the structures. A value given as a limit tells only on which side of the number the result lay.

What all share (experiment): Pre-emergent Test III, preemergent activity in wheat and barley
One assay relates to HORSS. It is filed as in vivo, Hordeum vulgare. Here is the method: (§1) Pre-emergent Test III. Seeds of test species were planted into square plastic pots (10 cm wide) containing sandy loam soil. After planting, all pots were sub-irrigated 16 h prior to compound application. A weighed amount, determined by the highest rate to be tested, of each test compound was placed in a 25 mL glass vial and was dissolved in 4 mL of a 97:3 v/v mixture of acetone and DMSO to obtain concentrated stock solutions. […] The concentrated stock solutions obtained were diluted with 20 mL of an aqueous mixture containing water and 0.02% w/v (weight/volume) of Triton X-155 to obtain spray solutions containing the highest application rates. Additional application rates were obtained by serial dilution of 12 mL of the high rate solution into a solution containing 2 mL of 97:3 v/v mixture of acetone and DMSO and 10 mL of an aqueous mixture containing water and 0.02% w/v (weight/volume) of Triton X-155 to obtain 1⁄2×, 1⁄4×, 1⁄8× and 1/16× rates of the high rate. Compound requirements are based upon a 12 mL application volume at a rate of 187 liters per hectare (L/ha). Formulated compounds were applied to the soil surface with an overhead Mandel track sprayer equipped with […] nozzles calibrated to deliver 187 L/ha over an application area of 0.503 square meters. Control pots were sprayed in the same manner with the solvent blank. The treated pots and control pots were placed in a greenhouse as described above and watered through surface irrigation. After 21 d, the condition of the test pots as compared with that of the untreated pots was determined visually and scored on a scale of 0 to 100 percent where 0 corresponds to no herbicidal effect and 100 corresponds to plant death or lack of emergence from the soil. By applying the well-accepted probit analysis as described by J. Berkson in Journal of the American Statistical Society, 48, 565 (1953) and by D. Finney in “Probit Analysis” Cambridge University Press (1952), the above data can be used to calculate GR20, GR50, GR80 and GR90 values, which are defined as growth reduction factors that correspond to the effective dose of herbicide required to kill or control 20 percent, 50 percent, 80 percent or 90 percent, respectively, of a target plant.

A further assay deals with TRZSS. It is filed as in vivo, Triticum aestivum. Here is the method: as §1
Another assay relates to APESV. It is filed as in vivo, Apera spica-venti. How it is done:
as §1

The subject of another assay is SETVI. It is filed as in vivo, Setaria viridis. Here is the method: as §1
The mark [1] stands for this setting: 21 days after application, dose to kill or control 20%, probit analysis.
Setting [2] is: 21 days after application, dose to kill or control 50%, probit analysis.
The mark [3] stands for this setting: 21 days after application, dose to kill or control 80%, probit analysis.

Take `COC(=O)c1nc(-c2ccc(Br)c(F)c2)c(F)c(N)c1Cl` [Compound 49]: the “Visual Growth Reduction (%) 21 Days After Application, HORSS” value in the assay on HORSS (35 g ai/ha) and in the assay with HORSS (70 g ai/ha) was “G (0-29)” in each case. For the same molecule, the “GR20 HORSS” value in the assay with HORSS (setting [1]) is over 70 g ai/ha. The “Visual Growth Reduction (%) 21 Days After Application, TRZSS” value with TRZSS (35 g ai/ha) and in the assay on TRZSS (70 g ai/ha) was “G (0-29)” throughout. The “GR20 TRZSS” value in the assay on TRZSS (setting [1]) is reported as over 70 g ai/ha. Besides, the results for the “Visual Growth Reduction (%) 21 Days After Application, APESV” value in the assay on APESV (35 g ai/ha) and in the assay on APESV (70 g ai/ha) were “F (30-44)” and “E (45-59)”, respectively. Besides, the “GR50 APESV” value with APESV (setting [2]) is over 70 g ai/ha. In addition, the “GR80 APESV” value in the assay with APESV (setting [3]) is over 70 g ai/ha. Besides, the “Visual Growth Reduction (%) 21 Days After Application, SETVI” value in the assay on SETVI (35 g ai/ha) and with SETVI (70 g ai/ha) was “F (30-44)” in each case. The “GR50 SETVI” value in the assay on SETVI (setting [2]) is over 70 g ai/ha. The “GR80 SETVI” value with SETVI (setting [3]) is recorded as over 70 g ai/ha.

These data come from US9113629B2, “4-amino-6-(4-substituted-phenyl)-picolinates and 6-amino-2-(4-substituted-phenyl)-pyrimidine-4-carboxylates and their use as herbicides” (DOW AGROSCIENCES LLC, priority 2013, dated 2015).
